The nature of series [1]: Cell viability (calcein AM) of non-malignant mammary epithelial cells. The series is classed as cell-based, human. Conditions: human, non-malignant mammary epithelial cells (184A1 and MCF10A), read-out: reduction of cell viability of non-malignant mammary epithelial cells. The method, then: (§1) Breast cancer cells (5,000 cells/well) and non-malignant mammary epithelial cells (8,000 cells/well) were plated on 96-well plates to observe growth of cells every 4 hours by phase contrast imaging using an IncuCyte Zoom Live Cell Analysis system (Essen Bioscience). After 24 hours of plating, inhibitors were added and monitored until control cells reached 100% confluent. To determine cell viability, cells were seeded in black walled 96-well plates overnight and treated with inhibitors for 48 hours. Calcein AM (R&D system) in PBS was then added and incubated for 1 hour at 37° C. Fluorescence was determined using a Victor3 plate reader (PerkinElmer) with excitation at 420 nm and emission at 520 nm. The absorbance was used to reflect live cell numbers and was normalized to those in control with vehicles and shown as relative viability (%).

The conditions of series [2]: in vivo; cited from earlier work.
The test system of series [3] is C3(1)-TAg tumors. Nature of the series: Transgenic TNBC mouse model C3(1)-TAg treated with metformin. The format is in vivo. Conditions: metformin 200 mg/kg/day, absence of hemin; very low BACH1 expression. The method, then:
For a transgenic TNBC mouse model, C3(1)-TAg, mice (n=5/group) were treated with metformin (200 mg/kg/day), after 10 days of mice developed palpable tumors (about 25 mm^3), at age of 15 weeks. Tumor volume was assayed by caliper measurement twice per week.

Series [4] deals with MB436-shBACH1 and BM1-shBACH1 (and shCont) xenograft TNBC tumors. Nature of the series: BACH1-depleted xenograft TNBC tumors treated with metformin. The series is classed as in vivo, mouse.
Protocol: (§2) Two million human breast cancer cells (MDA-MB-436-shCont, MDA-MB-436-shBACH1, BM1-shBACH1, or BM1-shCont) in 100 μl PBS were injected into the mammary fat pads of 5 to 6 weeks old athymic nude female mice (Charles River Laboratories). When tumors were about 20-30 or 50 mm^3 in volume, hemin (50 mg/kg/day) or vehicle (20 mM NaOH in phosphate buffered saline) was injected intraperitoneally for 10 days prior to metformin treatment for 8 weeks. Metformin (200 mg/kg for MDA-MB-436 cells or 300 mg/kg for BM1-cells) was provided in drinking water ad libidum. Tumor growth was monitored weekly by caliper measurement in two dimensions to generate ellipsoid volumes using an equation of vol.=0.4×(L×W^2).
In series [5] the test system is TNBC cells (BM1, MB436, MB468, BT549). The series is classed as cell-based, human. The method, then: TNBC cell lines stably knocked down with lenti-viral shRNA for BACH1 were constructed and maintained as described previously. Gene expression analysis of cultured cells and isolated tumor tissues used a Reverse transcriptase kit followed by Roche96 cycler for real time mRNA quantification and Lycor imaging for immunoblotting. For in vitro cell viability assay with mitochondrial inhibitors, TNBC cells (2×10^3-5×10^3/well) seeded on 96 well plates overnight with culture media (DMEM with 25 mM Glucose) were treated with inhibitors in fresh culture media (DMEM with 1.25 mM Glucose) for 48 and 72 hours and stained with calcein AM and/or monitored for cellular confluency using an IncuCyte Zoom Live Cell Analysis system. Extracellular flux analyzer was used to assay metabolic phenotypes of BACH1-depleted TNBC cells and TNBC cells that are treated with hemin overnight before assays. For bioinformatics analysis using primary patient data cohort (TCGA), cBioportal and R were used.
as §1

In series [6] the test system is MB436 xenograft tumors. Conditions: hemin 50 mg/kg/day i.p. 10 consecutive days prior to metformin 200 mg/kg.
Protocol: as §2
Series [7] relates to non-malignant mammary epithelial cells (184A1 and MCF10A). Nature of the series: Cell viability (calcein AM) of non-malignant mammary epithelial cells. The format is cell-based, human. To be noted: 48 hours. The method, then:
as §1

The conditions of series [8]: metformin 200-300 mg/kg; cited from earlier work.
For series [9], the system named is NAD+/NADH in shBACH1 TNBC cells. Nature of the series: NAD/NADH-Glo measurement. The format is cell-based, human. To be noted: pyruvate 2.5 mM added to growth media. The protocol:
NAD(H) was measured using the NAD/NADH-Glo Assay kit (Promega) in accordance with the manufacturer's protocol. Lactate produced by cells were measured using the media that 5×10^5 cells were plated on 6 well plates in 2 ml media containing 1.25 mM glucose for 3 days or overnight. Harvested media was used for L-Lactate Assay Kit I (Eton Bioscience). For glucose consumption measurement, media from the cells cultured in 12 well plates were freshly replenished with media containing 5 mM glucose and collected after 21 hours for glucose measurement using Glucose Assay Kit I (Eton Bioscience).

Entries after “also recorded” stand apart in the source; their conditions may differ.

With `C=C(C)[C@H]1Cc2c(ccc3c2O[C@@H]2COc4cc(OC)c(OC)cc4[C@@H]2C3=O)O1` [rotenone], in [1], the cytotoxicity at 48 h is 25 to 50%.
On to `CN(C)C(=N)N=C(N)N` [metformin], for which the “levels in metformin-treated human diabetic patients” value in series [2] was approximately 10 µM. Also, the “sensitivity of C3(1)-TAg mice tumors” value in series [3] is “highly sensitive to metformin”. The “growth of BM1 xenograft tumors expressing shBACH1” value in series [4] (metformin 300 mg/kg/day) is given as “Comparable results”. Also, in series [4] (metformin 200-300 mg/kg in drinking water, within a week of administration, MB436-shBACH1), the “growth of TNBC tumors stably expressing shBACH1” value was “drastically suppressed; also recorded: reduction of MB436-shBACH1 tumor volume”. Moreover, the control tumor growth result in series [4] (metformin alone, 200-300 mg/kg in drinking water, control (shCont) xenografts) is “no effect on control tumor growth”. Besides, the tumor-free mice entry in [4] (shBACH1 MB436 xenograft mice following metformin treatment) is listed as “a significant fraction of shBACH xenograft mice were tumor-free; also recorded: a significant fraction of shBACH1 MB436 xenograft mice were tumor-free”. Moreover, the “metformin response on overexpression of wt BACH1 in MB436-shBACH1 cells” value in series [5] is “generated a metformin-resistance phenotype”. Moreover, the “resistance to metformin on expression of Mut-Bach1 following heme treatment” value in series [5] (BM1-shBACH1 and MB436-shBACH1 cells) is “restored resistance to metformin”. The “sensitivity to metformin on BACH knockdown” value in [5] (MB436 or BM1 cells) is on record as “increased sensitivity to metformin treatment”. The “inhibitory effect of metformin after addition of pyruvate to growth media” value in [5] (pyruvate 2.5 mM, shBACH1 TNBC cells) is recorded as “completely rescued the inhibitory effect of metformin”. Besides, the “metformin resistance and cell growth after silencing COX15 or UQCRC1” value in [5] (siRNA for COX15 or UQCRC1 in BM1-shBACH1 cells) is on record as “completely restored metformin resistance”. Moreover, in series [6], the “breast tumor growth / volume” value was “neither hemin nor metformin alone significantly altered tumor growth”. Moreover, the “viability of non-malignant mammary epithelial cells” value in series [7] is on record as “did not alter the viability”. Moreover, in series [8], the “mouse tumor and plasma concentrations” value is 3 to 12 µM.
For the molecule `CC(=O)C(=O)O` [pyruvate], the “NAD+ levels” value in series [9] is “increased”.

The record behind these values is patent publication US10888569B1, “Methods and compositions for treating cancer” (THE UNIVERSITY OF CHICAGO, priority 2017, dated 2021).
